Measurements: patent US20250340563A1, “FUSED PYRIDAZINE DERIVATIVES AS NLRP3 INHIBITORS” (Takeda Pharmaceutical Company Limited, priority 2022, published 2025)

Molecular target: NLRP3 inflammasome (Homo sapiens, UniProt Q96P20)
Test: IL-1β assay in IFN-γ-differentiated, LPS-primed, ATP-activated THP-1 cells (ELISA)
Assay type: cell-based
Conditions: 50 ng/mL LPS priming, 2.5 mM ATP activation, 2 hours
Description: Monocytic THP-1 cells (ATCC: TIB-202) are maintained in accordance with the provider's instructions in RPMI media (Life Technologies, Cat #A10491-01); RPMI is supplemented with 10% heat inactivated fetal bovine serum (Hyclone Cat #SH30396.03). The cells are differentiated into macrophages by the addition of 25 ng/mL IFN-7 (PeproTech, Cat #300-02-100UG) for 24 hours at 37° C./5% CO2. Media is exchanged with fresh media with no FBS, and the cells are treated with 50 ng/mL LPS (priming step) for 24 hours at 37° C./5% CO2 (LPS-EK: Invivogen, Cat #tlrl-peklps). Media is exchanged with fresh media with no FBS. The cells are plated at 40,000 cells per well in 384-well flat-bottom cell culture plates (Costar 3764) containing compounds (added in 1:1000) in a 1:3.16 serial dilution series in DMSO and are incubated for 30 minutes at 37° C./5% CO2. The NLRP3 inflammasome is activated with the addition of 2.5 mM ATP (Sigma Cat #A3377) and the cells are incubated for 2 hours at 37° C./5% CO2. At the end of the incubation period, 40 μL supernatant is removed, and […] are monitored using an ELISA (Human […], R&D systems, Cat #DY201) in accordance with the manufacturer's instructions.
The IC50 values are calculated from a plot of percentage of inhibition versus the inhibitor concentration by a logistics curve fit according to: Y=[Bottom+(Top−Bottom)]/(1+10^[(Log IC50−X)·Hill Slope], where Y is the % inhibition at the inhibitor concentration, X, “Bottom” is the lowest inhibition value, i.e. 0%, “Top” is the maximum inhibition value, i.e. 100%, and the “Hill Slope” describes the slope of the sigmoidal curve between the “Bottom” and “Top” values. The curve fitting was conducted with internally developed software.

NLRP3 inflammasome, sequence (Q96P20 whole entry): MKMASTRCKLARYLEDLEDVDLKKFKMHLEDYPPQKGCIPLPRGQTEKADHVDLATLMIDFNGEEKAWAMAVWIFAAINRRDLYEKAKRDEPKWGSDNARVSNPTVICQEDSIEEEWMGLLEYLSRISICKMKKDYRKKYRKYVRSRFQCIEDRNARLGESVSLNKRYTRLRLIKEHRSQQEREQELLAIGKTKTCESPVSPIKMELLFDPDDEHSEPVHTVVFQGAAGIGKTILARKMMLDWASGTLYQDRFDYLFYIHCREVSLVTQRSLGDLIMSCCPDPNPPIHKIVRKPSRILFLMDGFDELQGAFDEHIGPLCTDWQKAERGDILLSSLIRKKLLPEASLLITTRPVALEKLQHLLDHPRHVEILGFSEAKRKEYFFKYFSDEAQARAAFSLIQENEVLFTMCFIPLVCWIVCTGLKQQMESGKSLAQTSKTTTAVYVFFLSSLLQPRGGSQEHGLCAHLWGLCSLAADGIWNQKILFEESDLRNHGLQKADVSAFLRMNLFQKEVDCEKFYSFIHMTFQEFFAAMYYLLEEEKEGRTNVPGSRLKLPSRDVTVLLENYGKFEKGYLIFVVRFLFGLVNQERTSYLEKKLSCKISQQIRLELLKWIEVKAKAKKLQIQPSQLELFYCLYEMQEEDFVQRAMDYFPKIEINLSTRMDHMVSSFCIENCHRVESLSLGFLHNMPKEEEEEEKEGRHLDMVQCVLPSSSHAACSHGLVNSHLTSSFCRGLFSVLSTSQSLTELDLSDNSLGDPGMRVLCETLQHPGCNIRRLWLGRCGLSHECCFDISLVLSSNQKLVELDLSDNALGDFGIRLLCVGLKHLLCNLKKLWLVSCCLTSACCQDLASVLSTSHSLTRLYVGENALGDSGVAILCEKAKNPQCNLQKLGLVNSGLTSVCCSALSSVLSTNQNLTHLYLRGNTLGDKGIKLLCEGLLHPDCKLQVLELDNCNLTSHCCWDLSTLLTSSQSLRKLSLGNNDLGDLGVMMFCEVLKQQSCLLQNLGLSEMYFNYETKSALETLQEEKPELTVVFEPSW

| IC50 [µM] | Compound |
| --- | --- |
| 2.75 | COc1ccc(-c2nnc(Nc3cccc(O)c3)c3c2CCCC3)cc1 [Example 199, 3-((4-(4-methoxyphenyl)-5,6,7,8-tetrahydrophthalazin-1-yl)amino)phenol] |
| 0.132 | Clc1ccc(-c2nnc(NC3CCCN(C4CCC4)C3)c3ccccc23)cc1 (stereo not shown) [Example 145, 4-(4-chlorophenyl)-N-(1-cyclobutylpiperidin-3-yl)phthalazin-1-amine] |
| 0.028 | CN1CCC[C@@H](Nc2nnc(-c3ccc(C(F)(F)F)cc3)c3ccncc23)C1 [Example 34, (R)—N-(1-methylpiperidin-3-yl)-1-(4-(trifluoromethyl)phenyl)pyrido[3,4-d]pyridazin-4-amine] |
| 3.55 | Oc1ccccc1Nc1nnc(-c2ccc(Cl)cc2)c2ccccc12 [Example 156, 2-((4-(4-chlorophenyl)phthalazin-1-yl)amino)phenol] |
| 0.307 | CN1CCC[C@@H](Nc2nnc(-c3ccccc3C(F)F)c3ccncc23)C1 [Example 91, (R)-1-(2-(difluoromethyl)phenyl)-N-(1-methylpiperidin-3-yl)pyrido[3,4-d]pyridazin-4-amine] |
| 3.31 | CN(C)C1CC(Nc2nnc(-c3ccc(Cl)cc3)c3ccccc23)C1 (stereo not shown) [Example 149, Ni-(4-(4-chlorophenyl)phthalazin-1-yl)-N^3,N^3-dimethylcyclobutane-1,3-diamine] |
| 0.626 | CN1CCCC(Nc2nnc(-c3ccc(C(C)(C)C)nc3)c3ccccc23)C1 (stereo not shown) [Example 20, 4-(6-(tert-butyl)pyridin-3-yl)-N-(1-methylpiperidin-3-yl)phthalazin-1-amine] |
| 1.2 | F[C@@H]1C[C@@H](Nc2nnc(-c3ccc(Cl)cc3)c3ccccc23)CN(C2CC2)C1 [Example 54, 4-(4-chlorophenyl)-N-((3R,5R)-1-cyclopropyl-5-fluoropiperidin-3-yl)phthalazin-1-amine] |
| 0.838 | CN1CCCC(Nc2nnc(-c3ccc(Cl)cc3F)c3cnccc23)C1 (stereo not shown) [Example 69, 4-(4-chloro-2-fluorophenyl)-N-(1-methylpiperidin-3-yl)pyrido[3,4-d]pyridazin-1-amine] |
| 3.02 | CN1CC2CCCC(C1)C2Nc1nnc(-c2ccc(Cl)cc2)c2ccccc12 (stereo not shown) [Example 151, 4-(4-chlorophenyl)-N-(3-methyl-3-azabicyclo[3.3.1]nonan-9-yl)phthalazin-1-amine] |
| 3.55 | CN1CCCC(Nc2nnc(-c3ccc(Cl)cc3)c3cnccc23)C1 (stereo not shown) [Example 62, 4-(4-chlorophenyl)-N-(1-methylpiperidin-3-yl)pyrido[3,4-d]pyridazin-1-amine] |
| 0.183 | COc1ccc(-c2nnc(N[C@@H]3CCCN(C)C3)c3c(C)nccc23)c(O)c1 [Example 78, (R)-5-methoxy-2-(5-methyl-4-((1-methylpiperidin-3-yl)amino)pyrido[3,4-d]pyridazin-1-yl)phenol] |
| 0.891 | Oc1cccc(Nc2nnc(-c3ccc(C4CC4)cc3F)c3ccccc23)c1 [Example 8, 3-((4-(4-cyclopropyl-2-fluorophenyl)phthalazin-1-yl)amino)phenol] |
| 1.44 | CC(C)(C)c1ccc(-c2nnc(Nc3cccc(O)c3)c3ccccc23)cc1 [Example 5, 3-((4-(4-(tert-butyl)phenyl)phthalazin-1-yl)amino)phenol] |
| 2.95 | CN1CCCC(Nc2nnc(-c3ccccc3Cl)c3ccccc23)C1 (stereo not shown) [Example 14, 4-(2-chlorophenyl)-N-(1-methylpiperidin-3-yl)phthalazin-1-amine] |
| 0.977 | Clc1ccc(-c2nnc(NC3CCN(CC4CC4)C3)c3ccccc23)cc1 (stereo not shown) [Example 161, 4-(4-chlorophenyl)-N-(1-(cyclopropylmethyl)pyrrolidin-3-yl)phthalazin-1-amine] |
| 0.933 | CN1CCCC(Nc2nnc(-c3ccc(F)cc3)c3ccccc23)C1 (stereo not shown) [Example 11, 4-(4-fluorophenyl)-N-(1-methylpiperidin-3-yl)phthalazin-1-amine] |
| 0.115 | Cc1ccc(-c2nnc(NC3CCCN(C)C3)c3ccccc23)cc1 (stereo not shown) [Example 15, N-(1-methylpiperidin-3-yl)-4-(p-tolyl)phthalazin-1-amine] |
| 3.16 | CN1CC(Nc2nnc(-c3ccc(Cl)cc3)c3ccccc23)CC(F)(F)C1 (stereo not shown) [Example 108, 4-(4-chlorophenyl)-N-(5,5-difluoro-1-methylpiperidin-3-yl)phthalazin-1-amine] |
| 2.88 | Oc1cccc(Nc2nnc(-c3cccc(C4CCC4)c3)c3ccccc23)c1 [Example 6, 3-((4-(3-cyclobutylphenyl)phthalazin-1-yl)amino)phenol] |
| 0.036 | CN1CCC[C@@H](Nc2nnc(-c3ccc(OC(F)(F)F)cc3)c3ccncc23)C1 [Example 32, (R)—N-(1-methylpiperidin-3-yl)-1-(4-(trifluoromethoxy)phenyl)pyrido[3,4-d]pyridazin-4-amine] |

Second part, the compound before the results:

| Compound | IC50 [µM] |
| --- | --- |
| COc1ccc(-c2nnc(N[C@@H]3CCCN(C)C3)c3cnccc23)cc1F [Example 25, (R)-1-(3-fluoro-4-methoxyphenyl)-N-(1-methylpiperidin-3-yl)pyrido[3,4-d]pyridazin-4-amine] | 0.199 |
| CC(=O)N1CCCC(Nc2nnc(-c3ccc(Cl)cc3)c3ccccc23)C1 (stereo not shown) [Example 110, 1-(3-((4-(4-chlorophenyl)phthalazin-1-yl)amino)piperidin-1-yl)ethan-1-one] | 4.48 |
| C[C@]1(O)CC[C@H](Nc2nnc(-c3ccc(Cl)cc3)c3ccccc23)CC1 [Example 121, trans-4-((4-(4-chlorophenyl)phthalazin-1-yl)amino)-1-methylcyclohexan-1-ol] | 3.98 |
| COc1ccc(-c2nnc(N[C@@H]3CCCN(C)C3)c3cnccc23)c(F)c1 [Example 57, (R)-1-(2-fluoro-4-methoxyphenyl)-N-(1-methylpiperidin-3-yl)pyrido[3,4-d]pyridazin-4-amine] | 0.021 |
| CC(C)c1ccc(-c2nnc(Nc3cccc(O)c3)c3ccccc23)cc1 [Example 7, 3-((4-(4-isopropylphenyl)phthalazin-1-yl)amino)phenol] | 0.977 |
| F[C@H]1CNC[C@H](Nc2nnc(-c3ccc(Cl)cc3)c3cnccc23)C1 [Example 187, 4-(4-chlorophenyl)-N-((3R,5R)-5-fluoropiperidin-3-yl)pyrido[3,4-d]pyridazin-1-amine] | 3.09 |
| CN1CCC[C@@H](Nc2nnc(-c3ccc(OC(F)F)cc3F)c3ccncc23)C1 [Example 92, (R)-1-(4-(difluoromethoxy)-2-fluorophenyl)-N-(1-methylpiperidin-3-yl)pyrido[3,4-d]pyridazin-4-amine] | 0.06 |
| Clc1ccc(-c2nnc(NC3CN4CCC3CC4)c3ccccc23)cc1 (stereo not shown) [Example 164, N-(4-(4-chlorophenyl)phthalazin-1-yl)quinuclidin-3-amine] | 0.372 |
| CN1CCCC(Nc2nnc(-c3ccc(Cl)cc3)c3c2CCN(S(C)(=O)=O)C3)C1 (stereo not shown) [Example 106, 4-(4-chlorophenyl)-N-(1-methylpiperidin-3-yl)-6-(methylsulfonyl)-5,6,7,8-tetrahydropyrido[3,4-d]pyridazin-1-amine] | 3.31 |
| FC(F)CN1CCCC(Nc2nnc(-c3ccc(Cl)cc3)c3ccccc23)C1 (stereo not shown) [Example 142, 4-(4-chlorophenyl)-N-(1-(2,2-difluoroethyl)piperidin-3-yl)phthalazin-1-amine] | 0.195 |
| CC(=O)N1CCc2c(-c3ccc(Cl)cc3)nnc(NC3CCCN(C)C3)c2C1 (stereo not shown) [Example 105, 1-(1-(4-chlorophenyl)-4-((1-methylpiperidin-3-yl)amino)-7,8-dihydropyrido[3,4-d]pyridazin-6(5H)-yl)ethan-1-one] | 0.955 |
| O[C@]1(C(F)(F)F)CCC[C@@H](Nc2nnc(-c3ccc(Cl)cc3)c3ccccc23)C1 [Example 116, (1R,3R)-3-((4-(4-chlorophenyl)phthalazin-1-yl)amino)-1-(trifluoromethyl)cyclohexan-1-ol] | 0.912 |
| CN1C[C@H](F)C[C@@H](Nc2nnc(-c3ccccc3O)c3c2CCOC3)C1 [Example 202, 2-(1-(((3R,5R)-5-fluoro-1-methylpiperidin-3-yl)amino)-7,8-dihydro-5H-pyrano[3,4-d]pyridazin-4-yl)phenol] | 0.21 |
| CCN1CCc2c(NC3CCCN(C)C3)nnc(-c3ccc(Cl)cc3)c2C1 (stereo not shown) [Example 100, 4-(4-chlorophenyl)-6-ethyl-N-(1-methylpiperidin-3-yl)-5,6,7,8-tetrahydropyrido[3,4-d]pyridazin-1-amine] | 2.69 |
| Cc1ccc(-c2nnc(NC34CCC(O)(CC3)C4)c3c2CCOC3)c(O)c1 [Example 231, 4-((1-(2-hydroxy-4-methylphenyl)-7,8-dihydro-5H-pyrano[3,4-d]pyridazin-4-yl)amino)bicyclo[2.2.1]heptan-1-ol] | 0.195 |
| Clc1ccc(-c2nnc(NC3CN4CCC3C4)c3ccccc23)cc1 (stereo not shown) [Example 166, N-(1-azabicyclo[2.2.1]heptan-3-yl)-4-(4-chlorophenyl)phthalazin-1-amine] | 3.31 |
